How the values were obtained:
[1] = target: T1, Protein cereblon/Bcl-2-like protein 1 (Homo sapiens, UniProt Q07817+Q96SW2); experiment: PROTAC activity at CRBN/BCL-XL in human WI-38 cells assessed as induction of BCL-XL degradation incubated for 16 hrs by Western blot analysis; format: cell-based
Target sequence in this assay (Q07817 whole entry): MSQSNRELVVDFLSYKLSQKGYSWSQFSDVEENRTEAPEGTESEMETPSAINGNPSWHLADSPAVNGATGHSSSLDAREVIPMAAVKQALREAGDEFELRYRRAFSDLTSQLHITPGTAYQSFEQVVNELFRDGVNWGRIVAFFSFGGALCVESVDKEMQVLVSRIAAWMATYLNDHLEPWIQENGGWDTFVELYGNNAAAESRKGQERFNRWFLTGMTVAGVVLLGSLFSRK
Target sequence in this assay (Q96SW2 whole entry): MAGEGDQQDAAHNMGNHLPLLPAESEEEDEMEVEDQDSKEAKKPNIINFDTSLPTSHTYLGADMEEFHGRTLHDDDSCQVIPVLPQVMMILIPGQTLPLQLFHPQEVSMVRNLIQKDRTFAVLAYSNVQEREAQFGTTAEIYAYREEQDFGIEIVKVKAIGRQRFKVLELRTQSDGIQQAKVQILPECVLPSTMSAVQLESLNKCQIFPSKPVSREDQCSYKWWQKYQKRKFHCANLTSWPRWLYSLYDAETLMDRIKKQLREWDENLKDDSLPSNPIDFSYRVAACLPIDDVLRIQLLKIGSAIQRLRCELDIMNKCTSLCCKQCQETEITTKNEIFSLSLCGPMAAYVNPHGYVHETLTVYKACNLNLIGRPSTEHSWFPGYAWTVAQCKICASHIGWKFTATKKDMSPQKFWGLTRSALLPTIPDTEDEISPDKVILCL

[2] = target: T1, Protein cereblon/Bcl-2-like protein 1; experiment: PROTAC activity at CRBN/BCL-XL in human WI-38 cells assessed as induction of BCL-XL degradation incubated for 16 hrs by Western blot analysis relative to control; format: cell-based
Target sequence in this assay (Q07817 whole entry, looked up): as the sequence (Q07817 whole entry) above
Target sequence in this assay (Q96SW2 whole entry, looked up): as the sequence (Q96SW2 whole entry) above

EC50 [1]: 46 nM
Emax [2]: 96.2%
Compound: CC1(C)CCC(c2ccccc2)=C(CN2CCN(c3ccc(C(=O)NS(=O)(=O)c4ccc(N[C@H](CCN5CCN(C(=O)CCCn6cc(COCCOCCNc7cccc8c7C(=O)N(C7CCC(=O)NC7=O)C8=O)nn6)CC5)CSc5ccccc5)c(S(=O)(=O)C(F)(F)F)c4)cc3)CC2)C1 (some centres not stated)

Reference: ChEMBL document CHEMBL5104095, “Proteolysis targeting chimera (PROTAC) in drug discovery paradigm: Recent progress and future challenges” (Eur J Med Chem, 2021)
